Positions of bridges follow the written chain, without caps; N, C: chain ends. Non-standard residues stand in square brackets, D forms with d. No end group written: not given here.
What was measured:
[1] = system: TNBS-induced acute colitis; conditions: oral treatment, murine model; cited from earlier work
[2] = system: patients with mild to moderate ulcerative colitis; assay: Double-blind, placebo-controlled, four-week study of rectal dolcanatide in ulcerative colitis patients; assay type: in vivo, human; conditions: for improvement of ulcerative colitis symptoms compared with placebo-treated patients: 6 mg dissolved in saline, intra-rectally every evening for 28 days, 28 patients
Method: A double-blind, placebo-controlled, four-week study evaluating 28 patients with mild-to-moderate ulcerative colitis was conducted. Patients received 6 mg Dolcanatide dissolved in saline administered intra-rectally each evening for 28 days.
A double-blind, placebo-controlled, four week study was performed evaluating 28 patients with mild to moderate ulcerative colitis. Subjects were treated with either saline (placebo) or Dolcanatide (SP-333; SEQ ID NO: 9). Six mg of Dolcanatide was dissolved in saline and administered intra-rectally every evening for 28 days.

[3] = system: DSS-induced acute colitis; conditions: oral treatment, murine model; cited from earlier work

Substance: dAsn^1-Asp^2-Glu^3-Cys^4-Glu^5-Leu^6-Cys^7-Val^8-Asn^9-Val^10-Ala^11-Cys^12-Thr^13-Gly^14-Cys^15-dLeu^16 ([dN]DECELCVNVACTGC[dL]; disulfide 4-12, 7-15; ends not checked) [Dolcanatide]
- effect on TNBS-induced acute colitis [1]: ameliorate
- improvement of ulcerative colitis symptoms compared with placebo-treated patients [2]: Improved Ulcerative Colitis Symptoms
- improvement of ulcerative colitis symptoms compared with placebo-treated patients ([2]; listed as dolcanatide): clear signals of improvement
- safety and tolerability ([2]; 6 mg intra-rectally each evening for 28 days): safe and well tolerated
- remission from ulcerative colitis symptoms ([2]; after 28 days of treatment, 6 mg intra-rectally every evening): in remission from their ulcerative colitis symptoms
- effect on DSS-induced acute colitis [3]: ameliorate
